Assay results taken from ChEMBL document CHEMBL5647694, “Novel orally bioavailable EZH1/2 dual inhibitors with greater antitumor efficacy than an EZH2 selective inhibitor” (Cancer Sci, 2017).

How the values were obtained:
[1] = biological target: Protein-tyrosine kinase 6 (Homo sapiens) (UniProt Q13882); experiment: Inhibition of N-terminal GST-fused full length human BRK (2 to 451 residues) expressed in baculovirus-infected Sf21 cells using Blk/Lyntide as substrate at 1 uM in presence of ATP by Mobility shift assay
[2] = biological target: Epidermal growth factor receptor (Homo sapiens) (UniProt P00533); experiment: Inhibition of N-terminal GST-fused human EGFR cytoplasmic domain (669 to 1210 residues) expressed in baculovirus-infected Sf21 cells using Srctide as substrate at 1 uM in presence of ATP by Mobility shift assay
[3] = biological target: Fibroblast growth factor receptor 4 (Homo sapiens) (UniProt P22455); experiment: Inhibition of N-terminal GST-fused human FGFR4 cytoplasmic domain (460 to 802 residues) expressed in baculovirus-infected Sf21 cells using CSKtide as substrate at 1 uM in presence of ATP by Mobility shift assay
[4] = biological target: Tyrosine-protein kinase Fgr (Homo sapiens) (UniProt P09769); experiment: Inhibition of N-terminal GST-fused full length human FGR (1 to 529 residues) expressed in baculovirus-infected Sf21 cells using Srctide as substrate at 1 uM in presence of ATP by Mobility shift assay
[5] = biological target: Tyrosine-protein kinase JAK2 (Homo sapiens) (UniProt O60674); experiment: Inhibition of N-terminal His-tagged human JAK2 catalytic domain (826 to 1132 residues) expressed in baculovirus-infected Sf21 cells using Srctide as substrate at 1 uM in presence of ATP by Mobility shift assay
[6] = biological target: BDNF/NT-3 growth factors receptor (Homo sapiens) (UniProt Q16620); experiment: Inhibition of N-terminal GST-tagged human TRKB cytoplasmic domain (456 to 822 residues) expressed in baculovirus-infected Sf21 cells using Srctide as substrate at 1 uM in presence of ATP by Mobility shift assay
[7] = biological target: Cyclin-dependent kinase 1/cyclin B1 (Homo sapiens) (UniProt P06493+P14635); experiment: Inhibition of N-terminal GST-fused full length human CDC2 (1 to 297 residues)/N-terminal GST fused human CyclinB1 (1 to 433 residues) expressed in baculovirus-infected Sf21 cells using Modified Histone H1 as substrate at 1 uM in presence of ATP by Mobility shift assay
[8] = biological target: CDC7/DBF4 (Cell division cycle 7-related protein kinase/Activator of S phase kinase) (Homo sapiens) (UniProt Q9UBU7+O00311); experiment: Inhibition of N-terminal GST-tagged full length human CDC7 (1 to 574 residues)/N-terminal GST-tagged ASK (1 to 674 residues) expressed in baculovirus-infected Sf21 cells using MCM2 peptide as substrate at 1 uM in presence of ATP by Mobility shift assay
[9] = biological target: CDK3/Cyclin E (Homo sapiens) (UniProt P24864+Q00526); experiment: Inhibition of N-terminal GST-tagged full length human CDK3 (1 to 305 residues)/N-terminal GST-tagged human CyclinE1 (1 to 410 residues) expressed in baculovirus-infected Sf21 cells using Modified Histone H1 as substrate at 1 uM in presence of ATP by Mobility shift assay
[10] = biological target: CDK6/cyclin D3 (Homo sapiens) (UniProt P30281+Q00534); experiment: Inhibition of N-terminal GST-tagged full length human CDK6 (1 to 326 residues)/GST-tagged human CyclinD3 (1 to 292 residues) expressed in baculovirus-infected Sf21 cells using DYRKtide-F as substrate at 1 uM in presence of ATP by Mobility shift assay
[11] = biological target: Dual specificity protein kinase CLK1 (Homo sapiens) (UniProt P49759); experiment: Inhibition of N-terminal GST fused human CLK1 catalytic domain (129 to 484 residues) expressed in baculovirus expression system using DYRKtide-F as substrate at 1 uM in presence of ATP by Mobility shift assay
[12] = biological target: Dual specificity protein kinase CLK2 (Homo sapiens) (UniProt P49760); experiment: Inhibition of N-terminal GST-fused full length human CLK2 (1 to 499 residues) expressed in baculovirus expression system using DYRKtide-F as substrate at 1 uM in presence of ATP by Mobility shift assay
[13] = biological target: Serine/threonine-protein kinase DCLK2 (Homo sapiens) (UniProt Q8N568); experiment: Inhibition of N-terminal GST-fused truncated human DCAMKL2 (1 to 691 residues) expressed in baculovirus expression system using GS peptide as substrate at 1 uM in presence of ATP by Mobility shift assay
[14] = biological target: Inhibitor of nuclear factor kappa-B kinase subunit alpha (Homo sapiens) (UniProt O15111); experiment: Inhibition of N-terminal GST-fused full length human IKK-alpha (1 to 745 residues) expressed in baculovirus expression system using IkBalpha peptide as substrate at 1 uM in presence of ATP by IMAP assay
[15] = biological target: Mitogen-activated protein kinase 10 (Homo sapiens) (UniProt P53779); experiment: Inhibition of N-terminal GST-fused full length human JNK3 (1 to 426 residues) expressed in Escherichia coli expression system using Modified ERKtide as substrate at 1 uM in presence of ATP by Mobility shift assay
[16] = biological target: Serine/threonine-protein kinase MARK1 (Homo sapiens) (UniProt Q9P0L2); experiment: Inhibition of N-terminal GST-fused full length human MARK1 (1 to 795 residues) expressed in baculovirus expression system using CHKtide as substrate at 1 uM in presence of ATP by Mobility shift assay
[17] = biological target: Serine/threonine-protein kinase Nek9 (Homo sapiens) (UniProt Q8TD19); experiment: Inhibition of N-terminal GST-fused truncated human NEK9 (1 to 346, 733 to 979 residues) expressed in baculovirus expression system using CDK7 peptide as substrate at 1 uM in presence of ATP by Mobility shift assay
[18] = biological target: Protein kinase C delta type (Homo sapiens) (UniProt Q05655); experiment: Inhibition of N-terminal GST-fused human full length PKC-delta (1 to 676 residues ) expressed in baculovirus expression system using PKC peptide as substrate at 1 uM in presence of ATP by Mobility shift assay
[19] = biological target: Serine/threonine-protein kinase N1 (Homo sapiens) (UniProt Q16512); experiment: Inhibition of N-terminal GST-fused full length human PKN1 (1 to 942 residues) expressed in baculovirus expression system using S6K peptide as substrate at 1 uM in presence of ATP by IMAP
[20] = biological target: STE20-like serine/threonine-protein kinase (Homo sapiens) (UniProt Q9H2G2); experiment: Inhibition of N-terminal GST-fused full length human SLK (1 to 1152 residues) expressed in baculovirus expression system using Moesin-derived peptide as substrate at 1 uM in presence of ATP by Mobility shift assay
[21] = biological target: Testis-specific serine/threonine-protein kinase 2 (Homo sapiens) (UniProt Q96PF2); experiment: Inhibition of N-terminal GST-fused full length human TSSK2 (1 to 358 residues) expressed in baculovirus expression system using GS peptide as substrate at 1 uM in presence of ATP by Mobility shift assay

Row | Structure (SMILES) | inhibition [1] | inhibition [2] | inhibition [3] | inhibition [4] | inhibition [5] | inhibition [6] | inhibition [7] | inhibition [8] | inhibition [9] | inhibition [10] | inhibition [11] | inhibition [12] | inhibition [13] | inhibition [14] | inhibition [15] | inhibition [16] | inhibition [17] | inhibition [18] | inhibition [19] | inhibition [20] | also measured
1 | Cc1cc(C)c(CNC(=O)c2cc(Br)c3c(c2C)O[C@@](C)([C@H]2CC[C@H](N(C)C)CC2)O3)c(=O)[nH]1 | -3.9% | -2% | -3.7% | -4.6% | -4.4% | -2.8% | 1.8% | -5.5% | -1% | -8.9% | -3.3% | -1.6% | -2.7% | -0.6% | -2.9% | -4.5% | -3.3% | 1.5% | 6.7% | 1.6% | inhibition [21]: -2.5%
2 | Cc1cc(C)c(CNC(=O)c2cc(Cl)c3c(c2C)O[C@@](C)([C@H]2CC[C@H](N(C)C)CC2)O3)c(=O)[nH]1 [VALEMETOSTAT] | -3% | -1.8% | -5.6% | -6.5% | -4.5% | 0.6% | 8.7% | -6.7% | -0.2% | -4.9% | 1.7% | 2.5% | -5.4% | 11.5% | -5.8% | -7.1% | -1.9% | 2.7% | 8.3% | 3.3% | inhibition [21]: -3.3%
